{"source": "patent US20220401514A1", "about": "“ANTIMICROBIAL, BACTERIOPHAGE-DERIVED POLYPEPTIDES AND THEIR USE AGAINST GRAM-NEGATIVE AND ACID-FAST BACTERIA” (CONTRAFECT CORPORATION, priority 2019, published 2022)", "key": {"[1]": {"tested_on": "mature biofilms formed by P. aeruginosa strain ATCC 17647", "assay": "Minimal Biofilm Eradicating Concentration (MBEC), Calgary Biofilm Device, crystal violet", "format": "cell-based, Pseudomonas aeruginosa", "method": "Biofilms are then washed and treated with e.g., a 2-fold dilution series of the lysin in TSBg at e.g., 37° C. for 24 hours. After treatment, wells are washed, air-dried at e.g., 37° C. and stained with e.g., 0.05% crystal violet for 10 minutes.\nDetermination of Minimal Biofilm Eradicating Concentrations (MBEC). […] Biofilms were washed and treated with a 2-fold dilution series of each peptide in TSBg at 37° C. for 16 hours. […] The OD600 of extracted crystal violet was determined."}, "[2]": {"tested_on": "P. aeruginosa strain CFS-1292", "assay": "Time-kill assay in CAA with 2.5% human serum", "format": "cell-based, Pseudomonas aeruginosa", "details": "for Loss of bacterial viability: CAA with […] human serum, vs untreated controls", "method": "Time-Kill Assay of Chp Peptide Activity. […] Exponential phase bacteria were then diluted 1:100 into CAA/HuS and peptide was added at a final concentration of either 1 or 10 μg/mL. Control cultures were included with no peptide added (i.e., buffer control)."}, "[3]": {"tested_on": "Klebsiella pneumoniae strain 1139", "assay": "Checkerboard assay (FICI) with antibiotics, K. pneumoniae", "format": "cell-based", "in_short": "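Antibiotics in 2-fold dilutions across one axis against Chp peptide dilutions on the other. FICI = MIC in combination/MIC alone for antibiotic plus the same ratio for peptide; minimum FICI used. Synergy at FICI ≤0.5, strongly additive >0.5 to <1, additive 1-<2, antagonistic ≥2.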"}, "[4]": {"tested_on": "Acinetobacter baumannii strain 30", "assay": "Checkerboard assay (FICI) with antibiotics, A. baumannii", "format": "cell-based", "details": "checkerboard"}, "P. aeruginosa (CFS 1292)": {"tested_on": "P. aeruginosa (CFS 1292)", "assay": "microbe, parasite or virus in culture", "format": "cell-based, Pseudomonas aeruginosa", "details": "Pseudomonas aeruginosa"}, "[5]": {"details": "checkerboard, in combination with Chp4-M1"}, "[6]": {"details": "checkerboard, in combination with Chp6-M1"}, "[7]": {"details": "checkerboard, in combination with Chp10-M1"}, "[8]": {"details": "checkerboard, in combination with Unp2-M1"}}, "note": "Read-outs that look alike come from different tables or passages of the source."}
{"compound": "MARRYRLSRRRSRRLFSRTALRMHRRNRLRRIMRGGIRF [Chp4]", "values": [{"measurement": "MBEC", "setting": "[1]; MBEC assay format, summary statement, strain not stated there", "result": 0.25, "unit": "µg/mL"}, {"measurement": "MBEC", "setting": "[1]; P. aeruginosa ATCC 17647 mature biofilm, tryptic soy broth with 2% glucose", "result": 0.25, "unit": "µg/mL"}, {"measurement": "Loss of bacterial viability", "setting": "[2]; 1 μg/mL, 1 hour", "result": ">3.5", "unit": "log10 CFU/mL"}, {"measurement": "Loss of bacterial viability", "setting": "[2]; 1 μg/mL, 3 hours", "result": ">4", "unit": "log10 CFU/mL"}, {"measurement": "Loss of bacterial viability", "setting": "[2]; 1 μg/mL, 24 hours", "result": ">4.8", "unit": "log10 CFU/mL"}, {"measurement": "Loss of bacterial viability", "setting": "[2]; 10 μg/mL, 1 hour", "result": ">3.5", "unit": "log10 CFU/mL"}, {"measurement": "Loss of bacterial viability", "setting": "[2]; 10 μg/mL, 3 hours", "result": ">4", "unit": "log10 CFU/mL"}, {"measurement": "Loss of bacterial viability", "setting": "[2]; 10 μg/mL, 24 hours", "result": ">4.8", "unit": "log10 CFU/mL"}, {"measurement": "bacterial viability after treatment (time-kill)", "setting": "[2]; 1, 3 and 24 hours, 1 μg/mL and 10 μg/mL, CAA + […] human serum", "result": "multi-log fold decreases"}]}
{"compound": "NC[C@H]1O[C@H](O[C@H]2[C@H](O)[C@@H](O[C@H]3O[C@H](CO)[C@@H](O)[C@H](N)[C@H]3O)[C@H](N)C[C@@H]2N)[C@H](N)C[C@@H]1O", "note": "[tobramycin, reference compound]", "values": [{"measurement": "Antibiotic FIC", "setting": "[3]; [5]", "result": 0.125}, {"measurement": "Antibiotic MIC", "setting": "[3]; [5]", "result": 0.003906, "unit": "µg/mL"}, {"measurement": "Antibiotic FIC", "setting": "[3]; [6]", "result": 0.125}, {"measurement": "Antibiotic MIC", "setting": "[3]; [6]", "result": 0.003906, "unit": "µg/mL"}, {"measurement": "Antibiotic FIC", "setting": "[3]; [7]", "result": 0.125}, {"measurement": "Antibiotic MIC", "setting": "[3]; [7]", "result": 0.003906, "unit": "µg/mL"}, {"measurement": "Antibiotic FIC", "setting": "[3]; [8]", "result": 0.125}, {"measurement": "Antibiotic MIC", "setting": "[3]; [8]", "result": 0.003906, "unit": "µg/mL"}, {"measurement": "Antibiotic FIC", "setting": "[3]; combined with Chp2", "result": 0.25}, {"measurement": "Antibiotic MIC in checkerboard", "setting": "[3]; combined with Chp2", "result": 0.007812, "unit": "µg/mL"}, {"measurement": "Antibiotic FIC", "setting": "[3]; combined with Chp2-M1", "result": 0.25}, {"measurement": "Antibiotic MIC in checkerboard", "setting": "[3]; combined with Chp2-M1", "result": 0.003906, "unit": "µg/mL"}, {"measurement": "Antibiotic FIC", "setting": "[4]; in combination with Chp2", "result": 0.125}, {"measurement": "Antibiotic MIC", "setting": "[4]; in combination with Chp2", "result": 0.01562, "unit": "µg/mL"}, {"measurement": "Antibiotic FIC", "setting": "[4]; in combination with Chp2-M1", "result": 0.25}, {"measurement": "Antibiotic MIC", "setting": "[4]; in combination with Chp2-M1", "result": 0.01562, "unit": "µg/mL"}, {"measurement": "Antibiotic FIC", "setting": "[4]; in combination with Chp4-M1", "result": 0.5}, {"measurement": "Antibiotic FIC", "setting": "[4]; in combination with Chp6-M1", "result": 0.25}, {"measurement": "Antibiotic MIC", "setting": "[4]; in combination with Chp6-M1", "result": 0.01562, "unit": "µg/mL"}, {"measurement": "Antibiotic FIC", "setting": "[4]; in combination with Chp10-M1", "result": 0.25}, {"measurement": "Antibiotic MIC", "setting": "[4]; in combination with Chp10-M1", "result": 0.01562, "unit": "µg/mL"}, {"measurement": "Antibiotic FIC", "setting": "[4]; in combination with Unp2-M1", "result": 0.25}, {"measurement": "Antibiotic MIC", "setting": "[4]; in combination with Unp2-M1", "result": 0.01562, "unit": "µg/mL"}, {"measurement": "MIC", "setting": "P. aeruginosa (CFS 1292); read-out: MIC Center", "result": 0.5, "unit": "µg/mL"}, {"measurement": "MIC", "setting": "P. aeruginosa (CFS 1292); read-out: MIC Periphery", "result": 0.5, "unit": "µg/mL"}]}
